Experimental data as given in patent US9167820B2, “Anti-biofilm compounds” (priority 2011, dated 2015).

Legend:
[1] = system: P. gingivalis adherence to streptococci (S. gordonii DL-1); assay: Inhibition of P. gingivalis adherence to streptococci, two species biofilm culture model (confocal microscopy); type: cell-based; settings: for P. gingivalis adherence to streptococci at 5 μM: 5 μM compound; for inhibition of P. gingivalis adherence, dose dependence: tested at final concentrations of 5, 20 or 60 μM, 24 hrs anaerobic incubation; for P. gingivalis adherence to streptococci at 20 μM: 20 μM compound
Procedure: Compounds 25, 27a, 34, 35 and 42 were tested to determine if they inhibited P. gingivalis adherence to streptococci using a two species biofilm culture model. Compounds of the invention (e.g. compounds of formula I) can also be tested using this method. A mid-exponential phase culture of S. gordonii DL-1 was harvested by centrifugation and the cells were suspended in phosphate buffered saline (PBS) at a density of 10^9 cfu/ml. A 1 ml aliquot was labeled with hexidium iodide (30 μM) for 15 minutes with gentle shaking. After washing three times with PBS, streptococci were suspended in growth medium and 100 μl was added to a 12 well microtiter plate (Grace Bio-Labs) and incubated anaerobically for 24 hrs.
P. gingivalis cells from an exponential culture were washed with PBS and labeled by reacting with 4 μg/ml carboxyfluorescein-succinyl ester for 30 minutes at 4° C. After washing three times with PBS, the cells were suspended in PBS at a density of 2×10^7 cfu/ml. The test compounds were dissolved in absolute ethanol to a final concentration of 30 mM and each was diluted into 100 μl P. gingivalis to final concentrations of 5, 20 or 60 μM and incubated for 30 minutes. After removal of unbound streptococci from the micotiter plate, P. gingivalis samples were then added to each well and incubated anaerobically for 24 hrs. A control well contained P. gingivalis that was pre-incubated with PBS alone.
Adherence of P. gingivalis to streptococci was analyzed using confocal laser scanning microscopy on an Olympus FluoView 500 inverted confocal microscope. Image stacks were acquired using Olympus FluoView software and rendered into 3 dimensional projections using Volocity Image Analysis software, where S. gordonii is depicted in red and P. gingivalis is shown in green/yellow. […] Compound 46 reduced P. gingivalis adherence to streptococci by 25% at 25 μM and by approximately 60% at 50 μM.

[2] = system: P. gingivalis biofilms on streptococci; assay: Inhibition/disruption of P. gingivalis biofilms on streptococci by AgI/II-derived peptide; type: cell-based
Procedure: The plate assays above allow a quick examination of the kinetics of Mfa binding and inhibition of bacterial adherence. To determine if the Mfa-catalyzed compounds selected above inhibit the formation of P. gingivalis biofilms, or alternatively are capable of disrupting a pre-existing biofilm, dual species P. gingivalis-S. gordonii biofilms are grown and analyzed as previously described by Daep et al. (Daep, C. A., James, D. M., Lamont, R. J. and Demuth, D. R. 2006. Structural Characterization of Peptide-Mediated Inhibition of P. gingivalis Biofilm Formation. Infect. Immun. 74: 5756-5762; Daep, C. A., Lamont R. J. and Demuth, D. R. 2008. Interaction of P. gingivalis with oral streptococci requires a motif that resembles the eukaryotic nuclear receptor box protein-protein interaction domain. Infect. Immun. 76:3272-3280) using an open flow biofilm culture system. To determine if the inhibitors are capable of disrupting existing P. gingivalis-streptococcal biofilms, pre-formed biofilms are incubated with medium containing the inhibitor and analyzed as above. The inhibitors identified from the assays above are analyzed for in vivo efficacy in preventing P. gingivalis colonization in a mouse model of periodontitis.

[3] = system: P. gingivalis; assay: Modified Baker mouse model of periodontitis (S. gordonii then P. gingivalis infection), alveolar bone loss; type: in vivo, Balb/cByJ mice; settings: mice infected with S. gordonii and 10^7 cfu P. gingivalis; peptide added to the inoculum
From the text: FIG. 6. Alveolar bone loss induced in Balb/cByJ mice in the presence and absence of BAR peptide. Sham infected animals were inoculated with CMC slurry without bacteria.
To determine how effectively the inhibitors limit or prevent P. gingivalis colonization in vivo, a modified Baker mouse model of periodontitis is used. The model is modified by first infecting with and establishing S. gordonii in the oral cavity of Balb/cByJ mice then subsequently challenging with P. gingivalis. In the presence of S. gordonii, a persistent infection of P. gingivalis (detected by 16S rDNA PCR 47 days post infection) can be established using an inoculum of 10^7 cfu. […] Thus, preventing P. gingivalis colonization of mice reduces alveolar bone loss.

Cc1nc(-c2ccccc2)c(-c2ccccc2)o1 [Compound 25, 2-Methyl-4,5-diphenyloxazole]
P. gingivalis adherence to streptococci at 5 μM [1]: completely inhibited

c1ccc(-c2nc(-c3ccccc3)c(-c3ccccc3)o2)cc1 [Compound 27a]
P. gingivalis adherence to streptococci at a concentration of 60 ([1]; concentration of 60 (unit not given)): completely blocked adherence
inhibition of P. gingivalis adherence, dose dependence [1]: dose dependent inhibition

[N-]=[N+]=Nc1ccc(-c2nc(-c3ccccc3)c(-c3ccccc3)o2)cc1 [Compound 34, 2-(4-azidophenyl)-4,5-diphenyloxazole]
P. gingivalis adherence to streptococci at 5 μM [1]: significantly reduced
P. gingivalis adherence to streptococci at 20 μM [1]: completely blocked adherence

[N-]=[N+]=Nc1cccc(-c2nc(-c3ccccc3)c(-c3ccccc3)o2)c1 [Compound 35, 2-(3-azidophenyl)-4,5-diphenyloxazole]
P. gingivalis adherence to streptococci at 20 μM [1]: significantly reduced adherence
P. gingivalis adherence to streptococci at 60 μM ([1]; 60 μM compound): completely blocked

[N-]=[N+]=NCc1nc(-c2ccccc2)c(-c2ccccc2)o1 [Compound 42, 2-(Azidomethyl)-4,5-diphenyloxazole]
P. gingivalis adherence to streptococci at 20 μM [1]: completely inhibited adherence
inhibition of P. gingivalis adherence, dose dependence [1]: dose dependent inhibition

CC(C)CNc1nc(NCC(C)C)nc(-c2ccccc2)n1 [Compound 46, N^2,N^4-Diisobutyl-6-phenyl-1,3,5-triazine-2,4-diamine]
reduction of P. gingivalis adherence to streptococci at 25 μM ([1]; 25 μM compound): 25%
reduction of P. gingivalis adherence to streptococci at 50 μM ([1]; 50 μM compound): approximately 60%

LEAAPKKVQDLLKKANITVKGAFQLFS [BAR peptide]
inhibition of P. gingivalis adherence and formation of biofilms on streptococcal substrates [2]: potently inhibits
disruption of existing P. gingivalis biofilms ([2]; pre-existing biofilms): capable of disrupting existing P. gingivalis biofilms
IC50 ([2]; read-out: I50, inhibition of development of P. gingivalis biofilms on streptococci): 1.3 µM
alveolar bone loss [3]: reduced to near sham infected levels
